Results as given in patent publication US20170037028A1 (BAYER PHARMA AKTIENGESELLSCHAFT, priority 2013, published 2017).
pIC50: −log10 of the molar value.

The molecules below were run against T1, GLUT1 (Homo sapiens, UniProt P11166) (assay: Indirect measurement of GLUT1 activity by quantification of intracellular ATP levels (glucose induced ATP increase)). Conditions: DLD1 cells; 0.1 mM glucose, 1 μM Rotenone, 15 min; CellTiter-Glo ATP readout; IC50 values standardized to cytochalasin B IC50 values; read-out: IC50 regarding glucose induced ATP increase (GLUT1 inhibition).
T1 sequence (P11166 1-492): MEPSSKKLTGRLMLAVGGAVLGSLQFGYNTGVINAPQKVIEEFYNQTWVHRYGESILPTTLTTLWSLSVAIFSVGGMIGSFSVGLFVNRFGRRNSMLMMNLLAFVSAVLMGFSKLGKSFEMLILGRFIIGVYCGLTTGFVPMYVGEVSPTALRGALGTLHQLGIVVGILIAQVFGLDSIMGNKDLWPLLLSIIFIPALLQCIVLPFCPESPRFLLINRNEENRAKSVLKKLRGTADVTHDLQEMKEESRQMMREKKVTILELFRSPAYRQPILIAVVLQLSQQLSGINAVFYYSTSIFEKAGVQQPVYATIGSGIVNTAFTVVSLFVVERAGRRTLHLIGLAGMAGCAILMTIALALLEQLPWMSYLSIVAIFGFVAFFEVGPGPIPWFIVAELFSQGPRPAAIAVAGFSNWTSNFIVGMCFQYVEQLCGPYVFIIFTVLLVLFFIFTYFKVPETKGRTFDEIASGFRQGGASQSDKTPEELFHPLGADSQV
Type: cell-based
Set-up: endogenous in cells; host or cells: DLD1 or CHO-K1
Summary of the method: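 Intracellular ATP was measured by CellTiter-Glo luminescence as an indirect readout of transport: glucose-driven for GLUT1, fructose-driven for GLUT2. DLD1 or CHO-K1 cells were used alongside an oxidative phosphorylation inhibitor. Beforehand, cells were held overnight in glucose-free 1% FCS medium to deplete ATP.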

Row | SMILES | pIC50
1 | Cc1c(NC(=O)c2cc(C(N)=O)nc3cc(F)ccc23)c(C(F)(F)F)nn1Cc1ccc(C#N)nn1 [Example 427, N^4-{1-[(6-cyanopyridazin-3-yl)methyl]-5-methyl-3-(trifluoromethyl)-1H-pyrazol-4-yl}-7-fluoroquinoline-2,4-dicarboxamide] | 7.11

Same assay, conditions: read-out: IC50 regarding glucose induced ATP increase (GLUT1 inhibition)

Row | SMILES | pIC50
2 | CCc1nc(Cn2nc(C(F)(F)F)c(NC(=O)c3cc(C(N)=O)nc4cc(F)c(Cl)cc34)c2C)no1 [Example 409, 6-chloro-N^4-{1-[(5-ethyl-1,2,4-oxadiazol-3-yl)methyl]-5-methyl-3-(trifluoromethyl)-1H-pyrazol-4-yl}-7-fluoroquinoline-2,4-dicarboxamide] | 8.26
3 | CCc1cc(Cn2nc(C(F)(F)F)c(NC(=O)c3cc(C(N)=O)nc4cc(F)c(Cl)cc34)c2C)on1 [Example 410, 6-chloro-N^4-{1-[(3-ethyl-1,2-oxazol-5-yl)methyl]-5-methyl-3-(trifluoromethyl)-1H-pyrazol-4-yl}-7-fluoroquinoline-2,4-dicarboxamide] | 8.05
4 | Cc1cc(Cn2nc(C)c(NC(=O)c3cc(C(N)=O)nc4cc(F)c(Cl)cc34)c2C)on1 [Example 411, 6-chloro-N^4-{3,5-dimethyl-1-[(3-methyl-1,2-oxazol-5-yl)methyl]-1H-pyrazol-4-yl}-7-fluoroquinoline-2,4-dicarboxamide] | 8.96
5 | Cc1cc(Cn2nc(C)c(NC(=O)c3cc(C(N)=O)nc4cc(F)c(Cl)cc34)c2C)no1 [Example 412, 6-chloro-N^4-{3,5-dimethyl-1-[(5-methyl-1,2-oxazol-3-yl)methyl]-1H-pyrazol-4-yl}-7-fluoroquinoline-2,4-dicarboxamide] | 8.68
6 | CCS(=O)(=O)N1CCC(Cn2nc(C(F)(F)F)c(NC(=O)c3cc(C(N)=O)nc4cc(F)c(Cl)cc34)c2C)CC1 [Example 413, 6-chloro-N^4-[1-{[1-(ethylsulfonyl)piperidin-4-yl]methyl}-5-methyl-3-(trifluoromethyl)-1H-pyrazol-4-yl]-7-fluoroquinoline-2,4-dicarboxamide] | 8.25
7 | CCc1cc(Cn2nc(C)c(NC(=O)c3cc(C(N)=O)nc4cc(F)c(Cl)cc34)c2C)on1 [Example 414, 6-chloro-N^4-{1-[(3-ethyl-1,2-oxazol-5-yl)methyl]-3,5-dimethyl-1H-pyrazol-4-yl}-7-fluoroquinoline-2,4-dicarboxamide] | 8.89
8 | Cc1nn(Cc2cc(C(C)C)no2)c(C)c1NC(=O)c1cc(C(N)=O)nc2cc(F)c(Cl)cc12 [Example 416, 6-chloro-N^4-(3,5-dimethyl-1-{[3-(propan-2-yl)-1,2-oxazol-5-yl]methyl}-1H-pyrazol-4-yl)-7-fluoroquinoline-2,4-dicarboxamide] | 8.57
9 | Cc1nn(Cc2cc(C3CC3)on2)c(C)c1NC(=O)c1cc(C(N)=O)nc2cc(F)c(Cl)cc12 [Example 417, 6-chloro-N^4-{1-[(5-cyclopropyl-1,2-oxazol-3-yl)methyl]-3,5-dimethyl-1H-pyrazol-4-yl}-7-fluoroquinoline-2,4-dicarboxamide] | 9.15
10 | Cc1nn(Cc2cc(C3CC3)on2)c(C)c1NC(=O)c1cc(C(N)=O)nc2cc(F)ccc12 [Example 418, N^4-{1-[(5-cyclopropyl-1,2-oxazol-3-yl)methyl]-3,5-dimethyl-1H-pyrazol-4-yl}-7-fluoroquinoline-2,4-dicarboxamide] | 8.39
11 | Cc1nn(Cc2cc(C3CC3)on2)c(C)c1NC(=O)c1cc(C(N)=O)nc2ccccc12 [Example 419, N^4-{1-[(5-cyclopropyl-1,2-oxazol-3-yl)methyl]-3,5-dimethyl-1H-pyrazol-4-yl}quinoline-2,4-dicarboxamide] | 8.38
12 | Cc1cc(Cn2nc(C(F)(F)F)c(NC(=O)c3cc(C(N)=O)nc4cc(F)c(Cl)cc34)c2C)on1 [Example 420, 6-chloro-7-fluoro-N^4-{5-methyl-1-[(3-methyl-1,2-oxazol-5-yl)methyl]-3-(trifluoromethyl)-1H-pyrazol-4-yl}quinoline-2,4-dicarboxamide] | 8.31
13 | Cc1c(NC(=O)c2cc(C(N)=O)nc3cc(F)c(Cl)cc23)c(C(F)(F)F)nn1Cc1ccc(C#N)s1 [Example 421, 6-chloro-N^4-{1-[(5-cyano-2-thienyl)methyl]-5-methyl-3-(trifluoromethyl)-1H-pyrazol-4-yl}-7-fluoroquinoline-2,4-dicarboxamide] | 8.54
14 | Cc1nn(Cc2ccc(C#N)s2)c(C)c1NC(=O)c1cc(C(N)=O)nc2cc(F)ccc12 [Example 422] | 8.30
15 | Cc1c(NC(=O)c2cc(C(N)=O)nc3cc(F)ccc23)c(C(F)(F)F)nn1Cc1ncc(C#N)cn1 [Example 423, N^4-{1-[(5-cyanopyrimidin-2-yl)methyl]-5-methyl-3-(trifluoromethyl)-1H-pyrazol-4-yl}-7-fluoroquinoline-2,4-dicarboxamide] | 8.17
16 | Cc1c(NC(=O)c2cc(C(N)=O)nc3cccc(F)c23)c(C(F)(F)F)nn1Cc1ncc(C#N)cn1 [Example 424, N^4-{1-[(5-cyanopyrimidin-2-yl)methyl]-5-methyl-3-(trifluoromethyl)-1H-pyrazol-4-yl}-5-fluoroquinoline-2,4-dicarboxamide] | 8.17
17 | Cc1c(NC(=O)c2cc(C(N)=O)nc3ccc(O)cc23)c(C(F)(F)F)nn1Cc1ccc(C#N)cc1 [Example 425, N^4-[1-(4-cyanobenzyl)-5-methyl-3-(trifluoromethyl)-1H-pyrazol-4-yl]-6-hydroxyquinoline-2,4-dicarboxamide] | 8.31
18 | Cc1c(NC(=O)c2cc(C(=O)NS(C)(=O)=O)nc3ccccc23)c(C(F)(F)F)nn1Cc1ccc(C#N)cc1 [Example 426, N^4-[1-(4-cyanobenzyl)-5-methyl-3-(trifluoromethyl)-1H-pyrazol-4-yl]-N^2-(methylsulfonyl)quinoline-2,4-dicarboxamide] | 5.60
19 | Cc1nn(Cc2ccc(C(=O)NCc3ccncc3)cc2)c(C)c1NC(=O)c1cc(C(F)(F)F)nc2ccc(Br)cc12 [Example 1021] | 8.64
20 | Cc1nn(Cc2ccc(C(=O)Nc3ccccc3C(N)=O)cc2)c(C)c1NC(=O)c1cc(C(F)(F)F)nc2ccc(Br)cc12 [Example 1038] | 8.24
21 | Cc1nn(Cc2ccc(C(=O)Nc3ccccc3Cl)cc2)c(C)c1NC(=O)c1cc(C(F)(F)F)nc2ccc(Br)cc12 [Example 1040] | 8.17
22 | CNC(=O)N(C)CCNC(=O)c1ccc(Cn2nc(C)c(NC(=O)c3cc(C(F)(F)F)nc4ccc(Br)cc34)c2C)cc1 [Example 1043] | 8.06
23 | Cc1nn(Cc2ccc(C(=O)NCCCC(=O)N(C)C)cc2)c(C)c1NC(=O)c1cc(C(F)(F)F)nc2ccc(Br)cc12 [Example 1044] | 8.06

Results, then the molecule that gave them:

Row | pIC50 | SMILES
24 | 8.72 | C=CCNC(=O)c1ccc(Cn2nc(C)c(NC(=O)c3cc(C(F)(F)F)nc4ccc(Br)cc34)c2C)cc1 [Example 1018]
25 | 8.72 | Cc1nn(Cc2ccc(C(=O)NC[C@@H](C)O)cc2)c(C)c1NC(=O)c1cc(C(F)(F)F)nc2ccc(Br)cc12 [Example 1019]
26 | 8.72 | CCCNC(=O)c1ccc(Cn2nc(C)c(NC(=O)c3cc(C(F)(F)F)nc4ccc(Br)cc34)c2C)cc1 [Example 1020]
27 | 8.62 | Cc1nn(Cc2ccc(C(=O)NCC#N)cc2)c(C)c1NC(=O)c1cc(C(F)(F)F)nc2ccc(Br)cc12 [Example 1022]
28 | 8.57 | Cc1nn(Cc2ccc(C(=O)NC3CC3)cc2)c(C)c1NC(=O)c1cc(C(F)(F)F)nc2ccc(Br)cc12 [Example 1024]
29 | 8.55 | COc1ccc(Cn2nc(C)c(NC(=O)c3cc(C(F)(F)F)nc4ccc(Br)cc34)c2C)cn1 [Example 1025]
30 | 8.52 | COc1ccc(Cn2nc(C(F)(F)F)c(NC(=O)c3cc(C(F)(F)F)nc4ccc(Br)cc34)c2C)cn1 [Example 1027]
31 | 8.52 | CCNC(=O)c1ccc(Cn2nc(C)c(NC(=O)c3cc(C(F)(F)F)nc4ccc(Br)cc34)c2C)cc1 [Example 1028]
32 | 8.49 | Cc1nn(Cc2ccc(C(=O)NCCF)cc2)c(C)c1NC(=O)c1cc(C(F)(F)F)nc2ccc(Br)cc12 [Example 1030]
33 | 8.38 | Cc1nn(Cc2ccc(C(=O)N3CCCC3)cc2)c(C)c1NC(=O)c1cc(C(F)(F)F)nc2ccc(Br)cc12 [Example 1033]
34 | 8.30 | COc1ccc(Cn2nc(C(F)(F)F)c(NC(=O)c3cc(C(F)(F)F)nc4ccc(Br)cc34)c2C)cc1 [Example 1035]
35 | 8.29 | CNC(=O)c1c(NC(=O)c2cc(C(F)(F)F)nc3ccc(Br)cc23)c(C)nn1Cc1ccc(F)cc1 [Example 1036]
36 | 8.28 | Cc1nn(Cc2ccc(C(=O)N3CCC3)cc2)c(C)c1NC(=O)c1cc(C(F)(F)F)nc2ccc(Br)cc12 [Example 1037]
37 | 8.24 | COc1ccc(Cn2nc(C)c(NC(=O)c3cc(C(F)(F)F)nc4ccc(Br)cc34)c2C)cc1F [Example 1039]
38 | 8.07 | Cc1nn(Cc2ccc(C(=O)Nc3ccccc3)cn2)c(C)c1NC(=O)c1cc(C(F)(F)F)nc2ccc(Br)cc12 [Example 1041]
39 | 8.03 | Cc1nn(Cc2ccc(C(=O)Nc3cccnc3)cc2)c(C)c1NC(=O)c1cc(C(F)(F)F)nc2ccc(Br)cc12 [Example 1045]
40 | 8.02 | Cc1nn(Cc2ccc(C(=O)NC[C@H](C)O)cc2)c(C)c1NC(=O)c1cc(C(F)(F)F)nc2ccc(Br)cc12 [Example 1046]
